Source: the Deep4Chem optical property database

Test: photoluminescence quantum yield (fraction); solvent given as SMILES

Q: With `COc1ccc(/C=C/c2nc3ccccc3o2)cc1` as the compound, how does the photoluminescence quantum yield (in C1CCCCC1) read?
A: Its photoluminescence quantum yield is 0.006.

Q: What about the photoluminescence quantum yield (in CO) of the same compound?
A: Its photoluminescence quantum yield is 0.001.

Q: With `Cc1ccccc1-c1nc(-c2ccccc2C)nc(-c2ccc(N3c4ccccc4C4(c5ccccc5-c5ccccc54)c4ccccc43)cc2C)n1` as the compound, how does the photoluminescence quantum yield (in O=P(c1ccccc1)(c1ccccc1)c1ccccc1Oc1ccccc1P(=O)(c1ccccc1)c1ccccc1) read?
A: Its photoluminescence quantum yield is 0.62.

Q: What does the source list for `COc1ccc(-n2c3ccccc3c3cc(C=C(C#N)C#N)ccc32)cc1`?
A: photoluminescence quantum yield (in C1CCOC1): 0.03; photoluminescence quantum yield (in CC#N): 0.01; photoluminescence quantum yield (in CC(C)=O): 0.018; photoluminescence quantum yield (in CCOC(C)=O): 0.05; photoluminescence quantum yield (in CO): 0.015; photoluminescence quantum yield (in CS(C)=O): 0.01; photoluminescence quantum yield (in Cc1ccccc1): 0.15; photoluminescence quantum yield (in ClC(Cl)Cl): 0.035

Q: With `CC(C)(C)c1ccc(-c2ccc3c(-c4ccc(C(C)(C)C)c5ccccc45)cc4c5cc(-c6ccc(C(C)(C)C)c7ccccc67)ccc5c(-c5ccc(C(C)(C)C)c6ccccc56)cc4c3c2)c2ccccc12` as the compound, how does the photoluminescence quantum yield (in ClCCl) read?
A: The photoluminescence quantum yield was 0.72.

Q: For `O=[N+]([O-])c1ccc(-c2nc3c(c4c2-c2ccccc2CC4)-c2ccccc2CC3)cc1`, which photoluminescence quantum yield (in CC#N) is on record?
A: The photoluminescence quantum yield was 0.037.

Q: And the photoluminescence quantum yield (in CS(C)=O)?
A: The photoluminescence quantum yield was 0.085.

Q: And the photoluminescence quantum yield (in ClCCl)?
A: Its photoluminescence quantum yield is 0.059.

Q: With `COC(=O)c1ccc(/C=C2\C=C(c3ccc([N+](=O)[O-])cc3)OC2=O)cc1` as the compound, how does the photoluminescence quantum yield (in C1COCCO1) read?
A: The photoluminescence quantum yield was 0.002.

Q: Which photoluminescence quantum yield (in ClCCl) does the source give for `COCCOCCOCCOCC(COCCOCCOCCOC)Oc1cc(/C=C/c2ccc(/C=C(\C#N)c3ccc(C(F)(F)F)cc3)cc2)c(OC(COCCOCCOCCOC)COCCOCCOCCOC)cc1/C=C/c1ccc(/C=C(\C#N)c2ccc(C(F)(F)F)cc2)cc1` here?
A: Its photoluminescence quantum yield is 0.55.

Q: For `Cn1c(=O)c(/N=N/c2ccc(S(=O)(=O)O)c3ccccc23)c(O)c2ccccc21`, which photoluminescence quantum yield (in CS(C)=O) is on record?
A: The photoluminescence quantum yield was 0.02.

Q: For `CCOC(=O)c1cc(C(=O)OCC)c2cc(O)ccc2n1`, which photoluminescence quantum yield (in CCO) is on record?
A: Its photoluminescence quantum yield is 0.16.

Q: With `CC(C)(C)c1cc2c3c(c1)-c1cccc4c1N(B3N1c3ccccc3Sc3cccc-2c31)c1ccccc1S4` as the compound, how does the photoluminescence quantum yield (in C1CCOC1) read?
A: Its photoluminescence quantum yield is 0.05.

Q: Which photoluminescence quantum yield (in C1CCOC1) does the source give for `O=C1OC(=O)c2ccc(N(c3ccccc3)c3ccc4ccccc4c3)c3cccc1c23` here?
A: Its photoluminescence quantum yield is 0.0003.

Q: What about the photoluminescence quantum yield (in CCCCCC) of the same compound?
A: Its photoluminescence quantum yield is 0.335.

Q: What about the photoluminescence quantum yield (in c1ccccc1) of the same compound?
A: The photoluminescence quantum yield was 0.0162.

Q: For `COc1ccc2c(-c3nc(-c4cccc(C)c4)no3)cc(=O)oc2c1`, which photoluminescence quantum yield (in CCO) is on record?
A: The photoluminescence quantum yield was 0.52.

Q: What about the photoluminescence quantum yield (in ClC(Cl)Cl) of the same compound?
A: The photoluminescence quantum yield was 0.12.

Q: With `Fc1ccc(-c2ccc(-c3cc(-c4ccccn4)nc(-c4ccccn4)c3)cc2)c(F)c1` as the compound, how does the photoluminescence quantum yield (in ClCCl) read?
A: The photoluminescence quantum yield was 0.16.

Q: Which results are given for `CCCCN1C(=O)C(=C/C=C/C=C2N(CCCC)c3ccccc3N2CCCC)C(=O)N(CCCC)C1=S`?
A: photoluminescence quantum yield (in CCCCCC): 0.115; photoluminescence quantum yield (in CCO): 0.013; photoluminescence quantum yield (in CN(C)C=O): 0.023; photoluminescence quantum yield (in Cc1ccccc1): 0.168; photoluminescence quantum yield (in ClC(Cl)Cl): 0.046; photoluminescence quantum yield (in ClCCl): 0.032

Q: With `O=C(c1ccc(/C(=C(/c2ccccc2)c2ccc(C(=O)c3ccc(-n4c5ccccc5c5ccccc54)cc3)cc2)c2ccccc2)cc1)c1ccc(-n2c3ccccc3c3ccccc32)cc1` as the compound, how does the photoluminescence quantum yield (in C1CCOC1) read?
A: Its photoluminescence quantum yield is 0.268.

Q: With `COc1ccc(C#Cc2cc3ccccc3oc2=O)cc1` as the compound, how does the photoluminescence quantum yield (in CC#N) read?
A: The photoluminescence quantum yield was 0.55.

Q: Which results are given for `CN(C)c1c2ccccc2cc2ccccc12`?
A: photoluminescence quantum yield (in C1CCCCC1): 0.008; photoluminescence quantum yield (in C1CCOC1): 0.01; photoluminescence quantum yield (in C1COCCO1): 0.013; photoluminescence quantum yield (in CC#N): 0.007; photoluminescence quantum yield (in CCO): 0.007; photoluminescence quantum yield (in CN(C)C=O): 0.016; photoluminescence quantum yield (in CO): 0.008; photoluminescence quantum yield (in COCCOC): 0.007; photoluminescence quantum yield (in CS(C)=O): 0.018; photoluminescence quantum yield (in O): 0.011; photoluminescence quantum yield (in OCC(O)CO): 0.068; photoluminescence quantum yield (in OCCO): 0.022

Q: With `CCN(CC)c1ccc2cc(-c3nc4cc(C(=O)Nc5ccc(C)cc5[N+](=O)[O-])ccc4o3)c(=O)oc2c1` as the compound, how does the photoluminescence quantum yield (in ClCCl) read?
A: Its photoluminescence quantum yield is 0.43.

Q: Which photoluminescence quantum yield (in C1CCCCC1) does the source give for `N#Cc1cccc(N)c1` here?
A: Its photoluminescence quantum yield is 0.062.

Q: And the photoluminescence quantum yield (in CC#N)?
A: The photoluminescence quantum yield was 0.32.

Q: And the photoluminescence quantum yield (in CCCCCC)?
A: Its photoluminescence quantum yield is 0.16.

Q: What about the photoluminescence quantum yield (in CCO) of the same compound?
A: The photoluminescence quantum yield was 0.19.

Q: What about the photoluminescence quantum yield (in O) of the same compound?
A: Its photoluminescence quantum yield is 0.0019.

Q: What about the photoluminescence quantum yield (in OCC(F)(F)F) of the same compound?
A: Its photoluminescence quantum yield is 0.0054.

Q: Which photoluminescence quantum yield (in CO) does the source give for `Cc1cc(C)c(B(c2cc(C#Cc3ccccc3)sc2-c2sc(C#Cc3ccccc3)cc2P(=O)(c2ccccc2)c2ccccc2)c2c(C)cc(C)cc2C)c(C)c1` here?
A: The photoluminescence quantum yield was 0.61.

Q: With `Nc1ccc2c(-c3ccccc3C(=O)[O-])c3ccc(=[NH2+])cc-3oc2c1` as the compound, how does the photoluminescence quantum yield (in CC#N) read?
A: The photoluminescence quantum yield was 0.95.

Q: What about the photoluminescence quantum yield (in CCO) of the same compound?
A: Its photoluminescence quantum yield is 0.88.

Q: What about the photoluminescence quantum yield (in CN(C)C=O) of the same compound?
A: Its photoluminescence quantum yield is 0.84.

Q: What about the photoluminescence quantum yield (in O) of the same compound?
A: The photoluminescence quantum yield was 0.85.

Q: With `COc1ccccc1-c1c2ccc(=[N+]3CCCCC3)cc-2oc2cc(N3CCCCC3)ccc12` as the compound, how does the photoluminescence quantum yield (in CCO) read?
A: Its photoluminescence quantum yield is 0.36.

Q: What about the photoluminescence quantum yield (in ClCCl) of the same compound?
A: Its photoluminescence quantum yield is 0.92.
